Data taken from patent US20240122179A1, “AUXINIC HERBICIDES AND METHODS OF USE THEREOF” (CORTEVA AGRISCIENCE LLC, priority 2021, published 2024).
Read-outs that look alike come from different tables or passages of the source.

Key:
[1] = tested on: Amaranthus rudis (AMATA); assay: Postemergence herbicide evaluation, percent reduction in plant size vs untreated control, 21 days after treatment; format: in vivo, Amaranthus rudis (tall water hemp); details: Amaranthus tuberculatus, post-emergence, 504 h, AMATA, postemergence, read-out: Control/Injury; for pest or weed control at 140 g/ha: rate 140 g ae/ha; for pest or weed control at 280 g/ha: rate 280 g ae/ha
In short: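 Greenhouse-grown tall waterhemp (25-28° C, 16 h light) at the 2-8 leaf stage, treated by track sprayer at 187 L/ha with compound at 140 or 280 g ae/ha in acetone/DMSO-based spray solution with crop oil and surfactant. 3-4 replicates per treatment, randomized complete block; plant size reduction versus untreated control measured 21 days after treatment.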

[2] = tested on: Ambrosia artemisiifolia (AMBEL); assay: as above; format: in vivo, Ambrosia artemisiifolia (common ragweed); details: post-emergence, 504 h, AMBEL, postemergence, read-out: Control/Injury; for pest or weed control at 140 g/ha: rate 140 g ae/ha; for pest or weed control at 280 g/ha: rate 280 g ae/ha
In short: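 Greenhouse-grown plants (25–28 °C, 16 h light) were sprayed postemergence at the 2–8 leaf stage with 140 or 280 g ae/ha in acetone/DMSO-based spray solution with crop oil and surfactant, at 187 L/ha by track sprayer. There were 3–4 replicates. Plant size was measured 21 days after treatment versus untreated plants.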

[3] = tested on: Kochia scoparia (KCHSC); assay: as above; format: in vivo; details: Bassia scoparia, post-emergence, 504 h, KCHSC, postemergence, read-out: Control/Injury; for pest or weed control at 140 g/ha: rate 140 g ae/ha; for pest or weed control at 280 g/ha: rate 280 g ae/ha
In short: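 Greenhouse-grown plants (25-28 °C, 16 h light) at the 2 to 8 leaf stage were track-sprayed postemergence at 140 or 280 g ae/ha in acetone/DMSO-based spray solution with crop oil and surfactant, at 187 L/ha, in 3-4 randomized replicates.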

[4] = tested on: Amaranthus palmeri (AMAPA); assay: as above; format: in vivo, Amaranthus palmeri (Palmer amaranth); details: post-emergence, 504 h, postemergence, read-out: Control/Injury; for pest or weed control at 140 g/ha: rate 140 g ae/ha; for pest or weed control at 280 g/ha: rate 280 g ae/ha
In short: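 Greenhouse-grown Palmer amaranth (25 to 28° C, 16 h light) sprayed postemergence at the 2 to 8 leaf stage with 140 or 280 g ae/ha in acetone/DMSO-based solution containing crop oil concentrate, 187 L/ha by track sprayer. Three to four replicates; plant size measured 21 days after treatment as percent reduction versus untreated control.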

[5] = tested on: Conyza canadensis (L.) (ERICA); assay: as above; format: in vivo, Conyza canadensis (L.) (Horseweed); details: Erigeron canadensis, post-emergence, 504 h, ERICA, postemergence, read-out: Control/Injury; for pest or weed control at 140 g/ha: rate 140 g ae/ha; for pest or weed control at 280 g/ha: rate 280 g ae/ha
In short: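 Horseshoe-weed (horseweed) seedlings at 2 to 8 leaf stage in greenhouse (25-28° C, 16 h light), sprayed postemergence at 140 or 280 g ae/ha in acetone/DMSO-based spray solution, 187 L/ha track-sprayer. Randomized complete block, 3-4 replicates; plant size measured 21 days after treatment as percent reduction vs untreated controls.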

[6] = tested on: Glycine max; assay: whole plant or invertebrate; details: for plant injury at 140 g/ha / plant injury at 280 g/ha: Glycine max, post-emergence, 504 h, read-out: Control/Injury; for Control/Injury: in vivo
Description: Plants were grown in a soil media composed of 90% by volume Promix BX (Premier Tech Horticulture, Quakertown, PA) and 10% Profile Greens Grade (Profile Products LLC, Buffalo Grove, IL). Promix BX contains approximately 83% Sphagnum Peat Moss, 13% Perlite, 5% vermiculite, and proprietary amounts of limestone, starter fertilizer, and wetting agent. Profile Greens Grade is a sand-sized granule formed from calcining illite and montmorillonite clay. Several seeds of each species were planted in 10 cm square pots and top watered twice daily. Plant material was propagated in a warm greenhouse with temperature ranging from 25 to 28° C. and 50 to 60% relative humidity at the Corteva Global Headquarters (Indianapolis, Indiana, USA). Natural light was supplemented with 1000-watt metal halide overhead lamps with an average illumination of 500 μE m^−2 s^−1 photosynthetic active radiation for 16 consecutive hours each day. Plants were top-watered prior to herbicide application and sub-watered after herbicide application.
Appropriate amounts of test materials were weighed out into glass vials in their technical form to deliver either 140 or 280 g acid equivalent (ae)/ha. The samples were dissolved in 3 ml of Solvent 1. Solvent 1 is 97% acetone and 3% dimethyl sulfoxide and serves as a general-purpose solvent (GPS) for dissolving technical materials. […] The samples were then diluted to their final concentration using 17 ml of solvent 2 for a total of 20 ml of spray solution. Solvent 2 contains 41.58% GPS, 45.53% water, 11.88% isopropyl alcohol, 0.99% crop oil concentrate and 0.02% Trition X-155 surfactant. All percentages are listed on a volume basis. Dicamba diglycolamine was applied as a formulated herbicide, Clarity™ and diluted with solvent 2 to compare all materials in the same spray solution.
Herbicide applications were made to 3 to 4 replicates of each plant species at the 2 to 8 leaf stage, depending on the species. Treatments were applied with a research track-sprayer (Generation III Research Sprayer manufactured by DeVries Manufacturing in Hollandale, MN, USA) calibrated to deliver a spray volume of 187 L/ha. The track-sprayer was fitted with an 8003E nozzle from Spray Systems Company (North Avenue and Schmale Road, P.O. Box 7900, Wheaton, IL 60187), and used a spray pressure of 276 kPa pressure and a speed of 3.1 km/h. The nozzle height was 46 cm above the plant canopy. The experimental design used for the trials was a randomized complete block with 3 or 4 replications per treatment. After application, plants were placed on carts according to the randomization and returned to the greenhouse. Plants were sub-watered after treatment with Indianapolis city water or fertilized three times a week with a commercial fertilizer solution (Jack's Professional 15-5-15 4 Ca 2 Mg fertilizer (manufactured by JR PETERS INC., 6656 Grant Way, Allentown, PA 18106; www.jrpeters.com). Percent visual control assessments were made on a scale of 0 to 100% (where 0 was no control and 100 was complete plant death) at 7, 14, and 21 days after treatment.
In conformity with the methods outlined in Example 49, the effect of representative experimental compounds on the growth of Glycine max was determined at 2 different levels (respectively, 140 and 280 g acid equivalent (ae)/ha) of the experimental actives tested. Plants were treated with one of the compounds, a control plant was not treated. Twenty-one days after treatment, the plants were measured. The data is present as a percent reduction in plant size relative to the untreated control.

[7] = R-AMAPA, percent reduction vs untreated control, 21 days after treatment
[8] = percent reduction vs untreated control, 21 days after treatment
[9] = percent reduction vs untreated, 21 days after treatment

| Compound | pest or weed control at 140 g/ha [1] | pest or weed control at 280 g/ha [1] | pest or weed control at 140 g/ha [2] | pest or weed control at 280 g/ha [2] | pest or weed control at 140 g/ha [4, 7] | pest or weed control at 280 g/ha [4, 7] | pest or weed control at 140 g/ha [5, 8] | pest or weed control at 280 g/ha [5, 8] | plant injury at 140 g/ha [6] | plant injury at 280 g/ha [6] | pest or weed control at 140 g/ha [3, 9] | pest or weed control at 280 g/ha [3, 9] | pest or weed control at 140 g/ha ([4]; AMAPA) | pest or weed control at 280 g/ha ([4]; AMAPA) | pest or weed control at 140 g/ha [5] | pest or weed control at 280 g/ha [5] | other results |
| --- | --- | --- | --- | --- | --- | --- | --- | --- | --- | --- | --- | --- | --- | --- | --- | --- | --- |
| COc1c(Cl)ccc(Cl)c1C(=O)ON1C(=O)c2ccccc2C1=O [Compound A-74] | 70% | 90% | 77% | 88% | 68% | 85% | 70% | 83% | 2% | 3% | – | – | – | – | – | – | pest or weed control at 140 g/ha [3]: 94%; pest or weed control at 280 g/ha [3]: 97% |
| COc1c(Cl)ccc(Cl)c1C(=O)NS(=O)(=O)c1ccc(C)cc1 [Compound A-78] | 12% | 20% | 45% | 57% | 23% | 32% | 5% | 15% | 25% | 67% | – | – | – | – | – | – | pest or weed control at 140 g/ha [3]: 50%; pest or weed control at 280 g/ha [3, 8]: 85% |
| COc1c(Cl)ccc(Cl)c1C(=O)O/N=C/c1cccc(/C=N/OC(=O)c2c(Cl)ccc(Cl)c2OC)c1 [Compound A-143] | 73% | 48% | 86% | 86% | 70% | 64% | – | – | – | – | 88% | 88% | – | – | – | – | pest or weed control at 140 g/ha [5, 9]: 80%; pest or weed control at 280 g/ha [5, 9]: 93%; Control/Injury [6]: 0 |
| COCCONC(=O)c1c(Cl)ccc(Cl)c1OC [Compound A-95] | – | – | – | – | 42% | 55% | 8% | 17% | 4% | 6% | 3% | 3% | 5% | 13% | 3% | 5% | pest or weed control at 140 g/ha [3, 8]: 57%; pest or weed control at 280 g/ha [3, 8]: 77%; Control/Injury [6]: 15 |
| COc1c(Cl)ccc(Cl)c1C(=O)NNc1ccc([N+](=O)[O-])cc1 [Compound A-132] | 18% | 18% | 38% | 33% | – | – | – | – | – | – | 8% | 15% | 20% | 30% | 23% | 8% | – |
| COc1c(Cl)ccc(Cl)c1C(=O)n1oc2ccccc2c1=O [Compound A-130] | 20% | 28% | 40% | 48% | – | – | – | – | – | – | 45% | 45% | 18% | 20% | 13% | 28% | – |
| COc1c(Cl)ccc(Cl)c1C(=O)O/N=C(\N)CC/C(N)=N/OC(=O)c1c(Cl)ccc(Cl)c1OC [Compound A-140] | 70% | 68% | 94% | 94% | 54% | 59% | – | – | – | – | 95% | 98% | – | – | – | – | pest or weed control at 140 g/ha [5, 9]: 83%; pest or weed control at 280 g/ha [5, 9]: 83% |
| COc1c(Cl)ccc(Cl)c1C(=O)NOc1ccc([N+](=O)[O-])cc1 [Compound A-97] | 55% | 68% | 73% | 90% | – | – | 75% | 70% | – | – | 73% | 88% | 50% | 65% | 18% | 40% | – |
